The IC50 is the midpoint of a concentration-inhibition curve.

Chain of human P2X3 receptor (P56373 whole entry): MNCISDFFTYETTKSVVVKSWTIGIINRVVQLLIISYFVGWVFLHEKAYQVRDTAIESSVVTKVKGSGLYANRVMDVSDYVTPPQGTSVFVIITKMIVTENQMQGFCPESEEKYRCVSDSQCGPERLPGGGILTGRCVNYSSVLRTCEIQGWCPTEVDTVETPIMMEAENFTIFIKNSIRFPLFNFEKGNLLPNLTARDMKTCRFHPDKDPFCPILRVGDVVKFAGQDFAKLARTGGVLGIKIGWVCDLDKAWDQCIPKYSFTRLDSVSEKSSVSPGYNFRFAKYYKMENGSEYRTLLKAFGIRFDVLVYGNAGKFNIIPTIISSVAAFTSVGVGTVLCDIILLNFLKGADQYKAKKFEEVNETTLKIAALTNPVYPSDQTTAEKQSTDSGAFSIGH

One experiment concerns the target human P2X3 receptor (Homo sapiens (Human), UniProt P56373). Briefly: Evaluation of human P2X3 receptor inhibitory activity (Fluo-3 calcium fluorescence, FDSS 3000, ATP stimulation).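 Also: stimulus was 50 nM ATP with fluorescence followed for 3 min, and the response per well was peak post-ATP fluorescence divided by the reading at measurement start.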 In kind it is cell-based. To be noted: C6BU-1 cells stably expressing human P2X3 receptor.
As for `CC(C)Oc1ccc(/N=c2\[nH]c(=O)n(CCN/C(=N\C#N)Oc3ccccc3)c(=O)n2Cc2ccc(Cl)cc2)cc1F` [Compound I-0652, 1-(4-chlorobenzyl)-6-(3-fluoro-4-isopropoxyphenylimino)-3-(4-cyanoimino-4-phenoxy-3-azabutyl)-1,3,5-triazinane-2,4-dion], the 50% inhibitory concentration (IC50) is 102 nM. Same read-out and setting: to `Cc1cc(/N=c2\[nH]c(=O)n(C[C@H](C)CC(=O)O)c(=O)n2Cc2ccc(Cl)cc2)ccc1OC(C)C` [Compound I-0765] belongs 40 nM; to `O=c1[nH]c(=O)n(Cc2ccc(Cl)cc2)/c(=N/c2ccc(Oc3ccnc(CO)c3)cc2)[nH]1` [Compound I-1962], 65 nM; to `COC(=O)[C@@H](C)Cn1c(=O)[nH]/c(=N\c2cccc(OC)c2)n(Cc2ccc(C)cc2)c1=O` [Compound I-1201], 788 nM. For the compound `Cc1ccc(Cn2c(=O)n(C)c(=O)[nH]/c2=N\c2ccc(Oc3cccc(C(=O)O)c3)cc2)cc1` [Compound I-2060], the IC50 is 22 nM. As to `O=C(O)CCn1c(=O)[nH]/c(=N\c2ccc(OC3CCC3)cc2)n(Cc2ccc(Cl)cc2)c1=O` [Compound I-1286], the IC50 was determined as 34 nM. For the compound `CC(C)Oc1ccc(/N=c2\[nH]c(=O)n(C[C@H](C)C(=O)O)c(=O)n2Cc2ccc(F)cc2)cc1Cl` [Compound I-0630], the IC50 is 30 nM. Same read-out and setting: to `C[C@@H](Oc1ccc(/N=c2\[nH]c(=O)n(CCC(=O)NCCO)c(=O)n2Cc2ccc(Cl)cc2)cc1)C(F)(F)F` [Compound I-1998] belongs 34 nM.

In the case of `Cc1ccc(Cn2c(=O)n(C[C@H](C)C(=O)O)c(=O)[nH]/c2=N\c2ccc3oc(C)cc3c2)cc1` [Compound I-0681], the IC50 came to 49 nM. Regarding `CC(C)Oc1ccc(/N=c2\[nH]c(=O)n(CCC(=O)Nc3ccc(OC(C)C)c(Cl)c3)c(=O)n2CC2CCC3(CC2)CC3)cc1Cl` [Compound I-1450], the IC50 is 448 nM. On to `COC(=O)C(C)(C)Cn1c(=O)[nH]/c(=N\c2ccc(OC(C)C)c(CO)c2)n(Cc2ccc(Cl)cc2)c1=O` [Compound I-1423], for which the IC50 was found to be 41 nM. Consider `CCOc1ccc(/N=c2\[nH]c(=O)n(C[C@H](C)C(=O)O)c(=O)n2Cc2ccc(Cl)cc2)cc1F` [Compound I-0609], for which the IC50 was 31 nM. The same measure, in the same setting: next, `CC(C)(Cn1c(=O)[nH]/c(=N\c2ccc(OCC3CC3)cc2)n(Cc2ccc(Cl)cc2)c1=O)C(=O)O` [Compound I-1263]: 25 nM. Consider `CCCn1c(=O)[nH]/c(=N\c2ccc(Oc3ccc(C(N)=O)nc3)cc2)n(Cc2ccc(Cl)cc2)c1=O` [Compound I-2203], for which the IC50 was 1 nM.

Consider `CCOC(=O)c1sc(Oc2ccc(/N=c3\[nH]c(=O)n(CC)c(=O)n3Cc3ccc(Cl)cc3)cc2)nc1C` [Compound I-2147], for which the IC50 turned out to be 14 nM. The same measure, in the same setting: to `CC[C@H](CC(=O)OC)n1c(=O)[nH]/c(=N\c2ccc(OC(C)C)c(C)c2)n(Cc2ccc(Cl)cc2)c1=O` [Compound I-0783] belongs 65 nM. Turning to `CC(C)Oc1ccc(/N=c2\[nH]c(=O)n(C[C@H](C)C(=O)O)c(=O)n2Cc2ccccc2)cc1Cl` [Compound I-0794], the IC50 is 168 nM. Turning to `COC(=O)C(C)(C)Cn1c(=O)[nH]/c(=N\c2cccc(C(F)(F)F)c2)n(Cc2ccc(C)cc2)c1=O` [Compound I-1258], the IC50 amounted to 8 nM. `CC(C)Cc1ccc(/N=c2\[nH]c(=O)n(C[C@H](C)C(=O)O)c(=O)n2Cc2ccc(Cl)cc2)cc1F` [Compound I-1257]: the IC50 was 9 nM.

As for `COC(=O)Cn1c(=O)[nH]/c(=N\c2ccc(OC(C)C)c(Cl)c2)n(Cc2ccc(Cl)cc2)c1=O` [Compound I-0660], the IC50 is 11 nM. On to `CNC(=O)c1cc(Oc2ccc(/N=c3\[nH]c(=O)[nH]c(=O)n3Cc3ccc(Cl)cc3)cc2F)ccn1` [Compound I-2101], for which the IC50 was found to be 26 nM. Still for that read-out and setting: next, `COC(=O)[C@@H](C)[C@@H](C)n1c(=O)[nH]/c(=N\c2ccc(OCC3CC3)cc2)n(Cc2ccc(Cl)cc2)c1=O` [Compound I-1316]: 54 nM. On the same count and under the same terms, next, `CC(C)Oc1ccc(/N=c2\[nH]c(=O)n(C[C@@H]3CC(=O)N([C@H](C)c4ccccc4)C3)c(=O)n2Cc2ccc(Cl)cc2)cc1F` [Compound I-0662]: 22 nM; `CCCc1nc2ccc(/N=c3\[nH]c(=O)n(C[C@H](C)C(=O)OC)c(=O)n3Cc3ccc(Cl)cc3)cc2o1` [Compound I-1327]: 73 nM. For the compound `Cc1nc2ccc(/N=c3\[nH]c(=O)n(CCO)c(=O)n3CC3CCC(C)CC3)cc2s1` (stereo not drawn) [Compound I-2098], the IC50 was 4 nM.

The experiment is the same for the next values; noted with them: C6BU-1 cells stably expressing human P2X3 receptor, Fluo-3 fluorescence, FDSS 3000.
With `Cc1ccc(Cn2c(=O)n(CCC(=O)O)c(=O)[nH]/c2=N\c2ncc(-c3ccccc3)s2)cc1` [Compound I-1725], the IC50 was 953 nM. With `Cc1ccc(Cn2c(=O)n(C[C@H](C)C(=O)O)c(=O)[nH]/c2=N\c2ccc(OC3CCOCC3)cc2)cc1` [Compound I-1074], the IC50 came out at 86 nM.

For `O=C(Cn1c(=O)[nH]/c(=N\c2ccc(Oc3ccc(O)nc3)cc2)n(Cc2ccc(Cl)cc2)c1=O)NCCO` [Compound I-1902], the IC50 is 8 nM. Take `C[C@@H](C(=O)O)[C@H](C)n1c(=O)[nH]/c(=N\c2ccc3oc4c(c3c2)CCCCC4)n(Cc2ccc(Cl)cc2)c1=O` [Compound I-1747]: the IC50 turned out to be 201 nM. Turning to `C[C@@H](C(=O)O)[C@H](C)n1c(=O)[nH]/c(=N\c2ccc3c(c2)CCC(=O)N3)n(Cc2ccc(Cl)cc2)c1=O` [Compound I-1819], the 50% inhibitory concentration (IC50) was found to be 873 nM. On the same count and under the same terms, to `CCCc1nc2ccc(/N=c3\[nH]c(=O)n(CCC(=O)O)c(=O)n3Cc3ccc(C)cc3)cc2s1` [Compound I-1560] belongs 51 nM; to `COC(=O)[C@@H](C)Cn1c(=O)[nH]/c(=N\c2ccc(C#CC3CC3)c(C)c2)n(Cc2ccc(Cl)cc2)c1=O` [Compound I-1041, (S)-1-(4-chlorobenzyl)-6-(3-mehyl-4-cyclopropylethynylphenylimino)-3-(2-methoxycarbonylpropyl)-1,3,5-triazinane-2,4-dion], 101 nM.

For the compound `COC(=O)[C@@H](C)Cn1c(=O)[nH]/c(=N\c2ccc(OC3CC3)c(Cl)c2)n(Cc2ccc(C)cc2)c1=O` [Compound I-1605], the IC50 is 18 nM. In the case of `CC(C)Cc1ccc(/N=c2\[nH]c(=O)n(CC(C)(CO)CO)c(=O)n2Cc2ccc(Cl)cc2)cc1Cl` [Compound I-1637], the IC50 is 12 nM. Consider `Cc1nc2ccc(/N=c3\[nH]c(=O)n(CC(C)(CO)CO)c(=O)n3Cc3ccc(Cl)cc3)cc2s1` [Compound I-1643], for which the IC50 was determined as 5 nM. `CC1(C)OCC(Cn2c(=O)[nH]/c(=N\c3ccc(OCC4CC4)cc3)n(Cc3ccc(Cl)cc3)c2=O)CO1` [Compound I-1841]: the IC50 came to 6 nM. Consider `Cc1ccc(Cn2c(=O)n(C[C@H](C)C(=O)O)c(=O)[nH]/c2=N\c2ccc(Oc3ccccc3)cc2)cc1` [Compound I-0992], for which the IC50 turned out to be 24 nM.

Take `Cc1nc2ccc(/N=c3\[nH]c(=O)n(C)c(=O)n3Cc3ccc(Cl)cc3)cc2s1` [Compound I-1737]: the IC50 was found to be 19 nM. Still for that read-out and setting: to `CC[C@@H](C)Oc1ccc(/N=c2\[nH]c(=O)n(CCCO)c(=O)n2Cc2ccc(Cl)cc2)cc1Cl` [Compound I-1623] belongs 7 nM. Turning to `Cc1ccc(Cn2c(=O)n(CCC(=O)O)c(=O)[nH]/c2=N\c2nc3ccccc3s2)cc1` [Compound I-1674], the IC50 stood at 971 nM. On the same count and under the same terms, next, `O=C(O)CCn1c(=O)[nH]/c(=N\c2ccc(Oc3ccc(F)cc3)cc2)n(Cc2ccc(Cl)cc2)c1=O` [Compound I-1877]: 36 nM.

Still in this experiment, the particulars now being: human P2X3 receptor, Test Example 1.
Take `CCc1cc2cc(/N=c3\[nH]c(=O)n(C[C@H](O)CO)c(=O)n3Cc3ccc(Cl)cc3)ccc2o1` [Compound I-2315]: the IC50 came to 17 nM. Turning to `COc1ccc(CNc2nc(=O)n(Cc3ccc(Cl)cc3)/c(=N/c3ccc(OC(C)C)cc3)[nH]2)c(OC)c1` [Compound I-2252], the IC50 turned out to be 769 nM.

In the case of `CCOCc1ccc(/N=c2\[nH]c(=O)n(C[C@H](C)C(=O)O)c(=O)n2Cc2ccc(C)cc2)cc1Cl` [Compound I-1502], the IC50 is 107 nM.

`CCc1ccc(Cn2c(=O)n(C[C@H](C)C(=O)OC)c(=O)[nH]/c2=N\c2ccc(OC(C)C)c(C)c2)cc1` [Compound I-0894, (S)-1-(4-ethylbenzyl)-6-(3-mehyl-4-isopropoxyphenylimino)-3-(2-methoxycarbonylpropyl)-1,3,5-triazinane-2,4-dion]: the IC50 turned out to be 28 nM. Turning to `Cc1nsc(Oc2ccc(/N=c3\[nH]c(=O)n(CC(CO)CO)c(=O)n3Cc3ccc(Cl)cc3)cc2)n1` [Compound I-2520], the IC50 is 2 nM. Take `O=c1[nH]/c(=N\c2ccc(Oc3ccc4[nH]cnc4c3)cc2)n(Cc2ccc(Cl)cc2)c(=O)n1CCO` [Compound I-2449]: the IC50 amounted to 9 nM. Consider `CCCOc1ccc(/N=c2\[nH]c(=O)n(CCCC(=O)OCC)c(=O)n2Cc2ccc(C)cc2)cc1Cl` [Compound I-0861], for which the IC50 turned out to be 19 nM. Still for that read-out and setting: next, `CCOC(=O)Cn1c(=O)[nH]/c(=N\c2ccc(Oc3nccs3)cc2)n(Cc2ccc(Cl)cc2)c1=O` [Compound I-2618]: 7 nM; `CCOC(=O)CCn1c(=O)[nH]/c(=N\c2ccc3nc(CC)sc3c2)n(Cc2ccc(C)cc2)c1=O` [Compound I-1506]: 2 nM. For the compound `Cn1c(=O)[nH]/c(=N\c2ccc(Oc3ccc(C(N)=O)nc3)cc2)n(Cc2ccc(Cl)cc2)c1=O` [Compound I-2406], the IC50 was 10 nM.

For the compound `NCCn1c(=O)[nH]/c(=N\c2ccc(Oc3ccon3)cc2)n(Cc2ccc(Cl)cc2)c1=O` [Compound I-2523], the IC50 was found to be 169 nM. The same measure, in the same setting: next, `COCCn1c(=O)[nH]/c(=N\c2ccc(Oc3cncc(C(=O)O)c3)cc2)n(Cc2ccc(Cl)cc2)c1=O` [Compound I-2547]: 8 nM.

As to `O=c1[nH]/c(=N\c2ccc(Oc3cnsn3)cc2)n(Cc2ccc(Cl)cc2)c(=O)n1CC(CO)CO` [Compound I-2478], the IC50 was 5 nM. Still for that read-out and setting: next, `CCn1c(=O)[nH]/c(=N\c2ccc(Oc3ccc(C(=O)O)nc3)cc2)n(Cc2ccc(Cl)cn2)c1=O` [Compound I-2278]: 136 nM; `CCn1c(=O)[nH]/c(=N\c2ccc(Oc3cc(C#N)ccn3)cc2)n(Cc2ccc(Cl)cc2)c1=O` [Compound I-2227]: 4 nM. With `CCOC(=O)CCn1c(=O)[nH]/c(=N\c2ccc3oc(CC)c(C)c3c2)n(Cc2ccc(C)cc2)c1=O` [Compound I-1504], the half-inhibitory concentration (IC50) is 5 nM.

(Values after patent US9718790B2, “Triazine derivative and pharmaceutical composition having an analgesic activity comprising the same” (SHIONOGI & CO., LTD., priority 2010, dated 2017).)
